# Measurements as given in patent US11890279B2, “Quinolines that modulate SERCA and their use for treating disease” (Neurodon Corporation, priority 2020, dated 2024).
# Tested on: CSM14.1 cells
# Test: ER stress cell survival assay (thapsigargin);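 further: survival read as CellTiter-Glo luminescence after overnight incubation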
# Assay type: cell-based
# Conditions: compound 2 μM; about 15 μM thapsigargin; CSM14.1 cells
# Protocol: ER Stress Cell Survival Assay
# CSM14.1 cells were maintained in Complete Medium at 32° C.; wherein the Complete Medium contained Dulbecco's modified eagle medium (DMEM) with 10% fetal bovine serum (FSB), 1% L-glutamine, 100 IU/mL penicillin, and 100 μg/mL streptomycin. The cells were recovered from cultures by trypsinization and then seeded in 384 well plates (Greiner #781098) at a concentration of 1,000 cells/well in 20 μL of DMEM Assay Medium, wherein the DMEM Assay Medium contained 2% FBS, 100 IU/mL penicillin, and 100 μg/mL streptomycin. Seeding was performed using a MultiDrop Combi reagent broadcaster. The plates were incubated overnight at 32° C.
# A test compound was prepared by 2-fold serial dilution in 100% DMSO using a BIOMEK® 2000 liquid handler (Beckman Coulter). A dose-response curve containing 10 concentrations of the test compound was obtained. Using a BIOMEK® FX liquid handler (Beckman Coulter), 2.5 μL of the test compound was transferred from the 100% DMSO serial dilution plate to an intermediate plate containing 47.5 μL of DMEM Assay Medium containing 2% FBS, 100 IU/mL penicillin, and 100 μg/mL streptomycin and mixed. To reduce or eliminate the interference from the compound's precipitation, 6 μL of the diluted compound was immediately transferred to the assay plate to achieve a high compound concentration of 100 μM in 99% DMEM Assay Medium and 1% DMSO. After the assay plates were incubated for 2 hrs, 4 μL of 112.5 μM thapsigargin (TG) (DMSO stock diluted into Assay TC Medium) was dispensed into each testing well with a MultiDrop Combi reagent broadcaster for a final concentration of about 15 μM TG. The tissue culture media (4 μL) containing vehicle only was transferred manually to each control cell using a 16 channel electronic pipette. […] High luminescence indicates cell survival.
# Alternatively, a test compound was tested at a single compound concentration (e.g., 2 μM) to determine the effect of the compound on cell survival in comparison with vehicle.
row,SMILES,Cell Survival
1,"Cc1ccc2cccc(NC(=O)c3ccc(Br)cc3)c2n1 [Compound C1, 4-Bromo-N-(2-methylquinolin-8-yl)benzamide]",A (A represents a value greater than 50%)
2,"Cc1ccc2cccc(NC(=O)c3ccccc3F)c2n1 [Compound C2, 2-Fluoro-N-(2-methylquinolin-8-yl)benzamide]",A (A represents a value greater than 50%)
3,"Cc1ccc2cccc(NC(=O)c3ccccc3[N+](=O)[O-])c2n1 [Compound C3, 2-Nitro-N-(2-methylquinolin-8-yl)benzamide]",B (B represents a value between 10% and 50%)
4,"Cc1ccc2cccc(NC(=O)c3cccc(OC(F)(F)F)c3)c2n1 [Compound C4, 3-Trifluoromethoxy-N-(2-methylquinolin-8-yl)benzamide]",B (B represents a value between 10% and 50%)
5,"Cc1ccc2cccc(NC(=O)c3cccc(F)c3)c2n1 [Compound C6, 3-Fluoro-N-(2-methylquinolin-8-yl)benzamide]",C (C represents a value between 1% and 10%)
6,"Cc1ccc2cccc(NC(=O)c3cccc([N+](=O)[O-])c3)c2n1 [Compound C7, 3-Nitro-N-(2-methylquinolin-8-yl)benzamide]",C (C represents a value between 1% and 10%)
7,"Cc1ccc2cccc(NC(=O)c3ccc([N+](=O)[O-])cc3)c2n1 [Compound C8, 4-Nitro-N-(2-methylquinolin-8-yl)benzamide]",D (D represents a value no greater than 1%)
8,"Cc1ccc2cccc(NC(=O)c3ccccc3Cl)c2n1 [Compound C9, 2-Chloro-N-(2-methylquinolin-8-yl)benzamide]",D (D represents a value no greater than 1%)
9,"Cc1ccc2cccc(NC(=O)c3ccc(OC(F)(F)F)cc3)c2n1 [Compound C11, 4-Trifluoromethoxy-N-(2-methylquinolin-8-yl)benzamide]",D (D represents a value no greater than 1%)
10,"Cc1ccc2cccc(NC(=O)c3cccc(C(F)(F)F)c3)c2n1 [Compound C12, 3-Trifluoromethyl-N-(2-methylquinolin-8-yl)benzamide]",D (D represents a value no greater than 1%)
11,"CCOc1ccc(C(=O)Nc2cccc3ccc(C)nc23)cc1 [Compound C13, 4-Ethoxy-N-(2-methylquinolin-8-yl)benzamide]",D (D represents a value no greater than 1%)
12,"Cc1ccc2cccc(NC(=O)c3ccc(F)cc3)c2n1 [Compound C14, 4-Fluoro-N-(2-methylquinolin-8-yl)benzamide]",D (D represents a value no greater than 1%)
13,"Cc1ccc2cccc(NC(=O)c3cccc(Cl)c3)c2n1 [Compound C15, 3-Chloro-N-(2-methylquinolin-8-yl)benzamide]",D (D represents a value no greater than 1%)
14,"Cc1ccc2cccc(NC(=O)c3cccc(Br)c3)c2n1 [Compound C16, 3-Bromo-N-(2-methylquinolin-8-yl)benzamide]",D (D represents a value no greater than 1%)

# Tested on: N2a cells
# Test: Protection against hydrogen peroxide-induced cell death, N2a
# Assay type: cell-based, mouse
# Conditions: compound 40 μM; hydrogen peroxide 200 μM
# Protocol: Protection against Hydrogen Peroxide-induced Cell-death. N2a cells grown in 96-well plates were exposed to a test compound (40 μM) for 2 hrs before addition of hydrogen peroxide (200 μM). After 40 min of incubation with hydrogen peroxide, ALAMARBLUE® regent (10% v/v) was added to the wells. Fluorescence reading was taken 2 hrs after the addition of the ALAMARBLUE® regent. Cell-viability was calculated as a percentage of relative fluorescence unit (RFU) compared to control.
# The results are summarized in Table 2, where A represents a value greater than 50% cell rescue, B represents a value between 10% to 50% cell rescue, C represents a value between 1% to 10% cell rescue, and D represents a value no greater than 1% cell rescue.
row,SMILES,N2a Cells (H2O2-induced) cell rescue
1,"Cc1ccc2cccc(NC(=O)c3cccs3)c2n1 [Compound G1, N-(2-Methylquinolin-8-yl)thiophene-2-carboxamide]",B (B represents a value between 10% to 50% cell rescue)
2,"Cc1ccc2cccc(NC(=O)c3sccc3C)c2n1 [Compound G3, 3-Methyl-N-(2-methylquinolin-8-yl)thiophene-2-carboxamide]",B (B represents a value between 10% to 50% cell rescue)
3,"Cc1ccc2cccc(NC(=O)c3ccc(Cl)s3)c2n1 [Compound G4, 5-Chloro-N-(2_methylquinolin-8-yl)thiophene-2-carboxamide]",B (B represents a value between 10% to 50% cell rescue)
4,"CC(=O)c1ccc(C(=O)Nc2cccc3ccc(C)nc23)s1 [Compound G5, 5-Acetyl-N-(2-methylquinolin-8-yl)thiophene-2-carboxamide]",B (B represents a value between 10% to 50% cell rescue)
5,"O=C(Nc1cccc2cccnc12)c1ccc(Br)s1 [Compound H1, 5-Bromo-N-(quinolin-8-yl)thiophene-2-carboxamide]",B (B represents a value between 10% to 50% cell rescue)
6,"O=C(Nc1cccc2cccnc12)c1cccs1 [Compound H2, N-(quinolin-8-yl)thiophene-2-carboxamide]",B (B represents a value between 10% to 50% cell rescue)
7,"Cc1ccc(C(=O)Nc2cccc3cccnc23)s1 [Compound H3, 5-Methyl-N-(quinolin-8-yl)thiophene-2-carboxamide]",A (A represents a value greater than 50% cell rescue)
8,"Cc1ccsc1C(=O)Nc1cccc2cccnc12 [Compound H4, 3-Methyl-N-(quinolin-8-yl)thiophene-2-carboxamide]",A (A represents a value greater than 50% cell rescue)
9,"O=C(Nc1cccc2cccnc12)c1ccc(Cl)s1 [Compound H5, 5-Chloro-N-(quinolin-8-yl)thiophene-2-carboxamide]",B (B represents a value between 10% to 50% cell rescue)
10,"CC(=O)c1ccc(C(=O)Nc2cccc3cccnc23)s1 [Compound H6, 5-Acetyl-N-(quinolin-8-yl)thiophene-2-carboxamide]",B (B represents a value between 10% to 50% cell rescue)
11,"O=C(Nc1cccc2cccnc12)c1cc2ccccc2o1 [Compound H7, N-(Quinolin-8-yl)benzofuran-2-carboxamide]",B (B represents a value between 10% to 50% cell rescue)
12,"O=C(Nc1cccc2cccnc12)c1ccc([N+](=O)[O-])s1 [Compound H8, 5-Nitro-N-(quinolin-8-yl)thiophene-2-carboxamide]",B (B represents a value between 10% to 50% cell rescue)
13,"O=C(Nc1cccc2cccnc12)c1cc(Br)cs1 [Compound H9, 4-Bromo-N-(quinolin-8-yl)thiophene-2-carboxamide]",A (A represents a value greater than 50% cell rescue)
14,"O=C(Nc1cccc2cccnc12)c1sc(Br)cc1Br [Compound H10, 3,5-Dibromo-N-(quinolin-8-yl)thiophene-2-carboxamide]",B (B represents a value between 10% to 50% cell rescue)
15,"O=C(Nc1cccc2cccnc12)c1cc(Br)c(Br)s1 [Compound H11, 4,5-Dibromo-N-(quinolin-8-yl)thiophene-2-carboxamide]",A (A represents a value greater than 50% cell rescue)

# Tested on: not listed separately
# Test: Pharmacokinetics in CD-1 mice
# Assay type: in vivo, mouse
# Conditions: CD-1 mice; 10 mg/kg P.O. vs 2 mg/kg i.v.
# Protocol: Pharmacokinetics of test compounds were assessed in CD-1 mice. The compounds were formulated at 1 mg/mL in DMSO/Tween 80/water (10/10/80, vol/vol/vol) and dosed at 2 mg/kg intravenous (i.v.) or 10 mg/kg by oral gavage (P.O.) in triplicate. Blood was drawn at 0.25 h, 0.5 h, 1 hr, 2 hrs, 4 hrs, 8 hrs, and 24 hrs into EDTA containing tubes and plasma was harvested by centrifugation. Plasma (10 μL) containing 50% acetonitrile in water (5 μL) was added to 200 μL of ACN containing an internal standard. The samples were vortexed for 30 s. After centrifugation at […] and 4,000 rpm for 15 min, the supernatant was diluted 3 times with water. Then, 20 μL of diluted supernatant was injected into the LC/MS/MS system for quantitative analysis. The samples were injected onto an Agilent ZORBAX XDB-Phenyl 5μ column (50×2.10 mm). Mobile Phase A was water with 0.1% formic acid. Mobile Phase B was acetonitrile with 0.1% formic acid. Separation was achieved using a gradient of 70% A/30% B to 0% A/100% B over 2.10 min. A Shimadzu LCMS-8050 equipped with a turbo ion spray source was used for all analytical measurements. A positive ion MRM method was developed. Peak areas of the product ion were measured against the peak areas of the internal standard. Data was fit using WinNonLin (Pharsight Corporation, Mountain View, CA).
row,SMILES,F [%]
1,"Cc1ccc2cccc(NC(=O)c3cc(Br)cs3)c2n1 [Compound G8, 4-Bromo-N-(2-methylquinolin-8-yl)thiophene-2-carboxamide]",0.12

# Same assay, conditions: mouse, plasma; CD-1 mice; 2 mg/kg i.v. or 10 mg/kg P.O.
SMILES,AUC [ng·h/mL],Cmax [nM],half-life [min]
"Cc1ccc2cccc(NC(=O)c3cc(Br)cs3)c2n1 [Compound G8, 4-Bromo-N-(2-methylquinolin-8-yl)thiophene-2-carboxamide]",0.78,10,36
